# Experimental data published in paper PMC4468608, “A distinct p53 target gene set predicts for response to the selective p53–HDM2 inhibitor NVP-CGM097” (eLife, 2015).
# Like-named read-outs stand apart in the source and are kept apart here.
# System: cell lines from the Cancer Cell Line Encyclopedia (CCLE)
# Assay: High-throughput cell viability assay, CCLE cell line panel (n = 356)
# Format: cell-based, human
# Settings: Homo sapiens
# Method: Cell lines were partitioned into sensitive and insensitive groups based on compound potency (IC50). […] All other cell lines were obtained from ATCC (American Type Culture Collection), DSMZ (Deutsche Sammlung von Mikroorganismen und Zellkulturen), and HSRRB (Health Science Research Resources Bank) and cultured in RPMI or Dulbecco's modified Eagle's medium plus 10% FBS (Invitrogen, Carlsbad, CA) at 37°C, 5% CO2.
structure (smiles),measurement,setting,value
COc1cc2c(cc1OC(C)C)[C@H](c1ccc(Cl)cc1)N(c1ccc(N(C)C[C@H]3CC[C@H](N4CCNC(=O)C4)CC3)cc1)C(=O)C2 [NVP-CFC218],IC50,"LOX IMVI, TP53 WT",> 8 µM
same,IC50,"LP-1, TP53 MUT",7.24 µM
same,IC50,"LS-1034, LS1034, TP53 MUT",> 8 µM
same,IC50,"LUDLU-1, LUDLU-1, TP53 MUT",> 8 µM
same,IC50,"Loucy, TP53 MUT",7.62 µM
same,IC50,"Lu-65, LU65, TP53 MUT",> 8 µM
same,IC50,"Lu-99, LU99, TP53 WT",2.71 µM
same,IC50,"MC116, MC116, TP53 MUT",5.21 µM
same,IC50,"MDA-MB-415, MDA-MB-415, TP53 MUT",7.62 µM
same,IC50,"MDA-MB-453, MDA-MB-453, TP53 WT",> 8 µM
same,IC50,"MDA-MB-468, MDA-MB-468, TP53 MUT",> 8 µM
same,IC50,"MEG-01, MEG-01, TP53 MUT",> 8 µM
same,IC50,"MFE-280, MFE-280, TP53 MUT",6.92 µM
same,IC50,"MFE-296, MFE-296, TP53 MUT",> 8 µM
same,IC50,"MFE-319, TP53 MUT",> 8 µM
same,IC50,"MG-63, MG-63, TP53 WT",> 8 µM
same,IC50,"MHH-ES-1, read-out: NVP- CFC218 IC50 (µM), cell line MHH-ES-1, bone, TP53 MUT",> 8 µM
same,IC50,"MIA PaCa-2, MIA PaCa-2, TP53 MUT",> 8 µM
same,IC50,"MKN-74, MKN74, TP53 MUT",> 8 µM
same,IC50,"MOG-G-CCM, TP53 MUT",> 8 µM
same,IC50,"MOG-G-UVW, TP53 WT",> 8 µM
same,IC50,"MOLM16, MOLM-16, TP53 MUT",> 8 µM
same,IC50,"MOLM-13, MOLM-13, TP53 WT",0.69 µM
same,IC50,"MOR/CPR, TP53 MUT",> 8 µM
same,IC50,"MPP 89, TP53 WT",> 8 µM
same,IC50,"Malme-3M, read-out: NVP- CFC218 IC50 (µM), cell line Malme-3M, skin, TP53 WT",> 8 µM
same,IC50,"MeWo, TP53 MUT",> 8 µM
same,IC50,"Mono-Mac-1, MONO-MAC-1, TP53 MUT",> 8 µM
same,IC50,"NALM-6, NALM-6, TP53 WT",1.16 µM
same,IC50,"NB-4, TP53 MUT",> 8 µM
same,IC50,"NCI-H23, NCI-H23, TP53 MUT",> 8 µM
same,IC50,"NCI-H211, NCI-H211, TP53 MUT",> 8 µM
same,IC50,"NCI-H358, NCI-H358, TP53 WT",> 8 µM
same,IC50,"NCI-H441, NCI-H441, TP53 MUT",> 8 µM
same,IC50,"NCI-H460, read-out: NVP- CFC218 IC50 (µM), cell line NCI-H460, lung, TP53 WT",> 8 µM
same,IC50,"NCI-H520, NCI-H520, TP53 MUT",> 8 µM
same,IC50,"NCI-H647, read-out: NVP- CFC218 IC50 (µM), cell line NCI-H647, lung, TP53 MUT",> 8 µM
same,IC50,"NCI-H650, NCI-H650, TP53 MUT",> 8 µM
same,IC50,"NCI-H747, NCI-H747, TP53 MUT",> 8 µM
same,IC50,"NCI-H810, NCI-H810, TP53 MUT",> 8 µM
same,IC50,"NCI-H889, NCI-H889, TP53 MUT",> 8 µM
same,IC50,"NCI-H1299, read-out: NVP- CFC218 IC50 (µM), cell line NCI-H1299, lung, TP53 WT",> 8 µM
same,IC50,"NCI-H1355, NCI-H1355, TP53 MUT",> 8 µM
same,IC50,"NCI-H1373, NCI-H1373, TP53 MUT",> 8 µM
same,IC50,"NCI-H1435, NCI-H1435, TP53 MUT",> 8 µM
same,IC50,"NCI-H1573, NCI-H1573, TP53 MUT",> 8 µM
same,IC50,"NCI-H1581, NCI-H1581, TP53 MUT",> 8 µM
same,IC50,"NCI-H1648, NCI-H1648, TP53 MUT",> 8 µM
same,IC50,"NCI-H1650, read-out: NVP- CFC218 IC50 (µM), cell line NCI-H1650, lung, TP53 MUT",> 8 µM
same,IC50,"NCI-H1651, NCI-H1651, TP53 MUT",> 8 µM
same,IC50,"NCI-H1666, NCI-H1666, TP53 WT",0.88 µM
same,IC50,"NCI-H1693, read-out: NVP- CFC218 IC50 (µM), cell line NCI-H1693, lung, TP53 MUT",> 8 µM
same,IC50,"NCI-H1703, read-out: NVP- CFC218 IC50 (µM), cell line NCI-H1703, lung, TP53 MUT",> 8 µM
same,IC50,"NCI-H1734, NCI-H1734, TP53 MUT",> 8 µM
same,IC50,"NCI-H1792, NCI-H1792, TP53 MUT",> 8 µM
same,IC50,"NCI-H1915, NCI-H1915, TP53 MUT",> 8 µM
same,IC50,"NCI-H1944, NCI-H1944, TP53 WT",6.39 µM
same,IC50,"NCI-H1975, NCI-H1975, TP53 MUT",> 8 µM
same,IC50,"NCI-H2009, NCI-H2009, TP53 MUT",> 8 µM
same,IC50,"NCI-H2052, NCI-H2052, TP53 WT",3.36 µM
same,IC50,"NCI-H2087, NCI-H2087, TP53 MUT",> 8 µM
same,IC50,"NCI-H2110, NCI-H2110, TP53 MUT",> 8 µM
same,IC50,"NCI-H2122, NCI-H2122, TP53 MUT",1.9 µM
same,IC50,"NCI-H2172, NCI-H2172, TP53 WT",> 8 µM
same,IC50,"NCI-H2196, NCI-H2196, TP53 MUT",> 8 µM
same,IC50,"NCI-H2347, NCI-H2347, TP53 WT",> 8 µM
same,IC50,"NCI-H2444, NCI-H2444, TP53 MUT",> 8 µM
same,IC50,"NCI-H2452, NCI-H2452, TP53 WT",> 8 µM
same,IC50,"NCO2, TP53 MUT",> 8 µM
same,IC50,"OAW-42, read-out: NVP- CFC218 IC50 (µM), cell line OAW42, ovary, TP53 WT",> 8 µM
same,IC50,"OC 316, TP53 MUT",> 8 µM
same,IC50,"OCI-AML2, OCI-AML2, TP53 WT",2.38 µM
same,IC50,"OCI-Ly10, OCI-LY10, TP53 MUT",> 8 µM
same,IC50,"OCI-M1, OCI-M1, TP53 MUT",> 8 µM
same,IC50,"OE19, read-out: NVP- CFC218 IC50 (µM), cell line OE19, oesophagus, TP53 MUT",> 8 µM
same,IC50,"OE33, OE33, TP53 MUT",> 8 µM
same,IC50,"ONS-76, ONS-76, TP53 WT",> 8 µM
same,IC50,"OPM-2, OPM-2, TP53 MUT",> 8 µM
same,IC50,"OV-90, OV-90, TP53 MUT",> 8 µM
same,IC50,"OVCAR-3, NIH:OVCAR-3, TP53 MUT",> 8 µM
same,IC50,"OVCAR-4, OVCAR-4, TP53 MUT",> 8 µM
same,IC50,"OVCAR-8, read-out: NVP- CFC218 IC50 (µM), cell line OVCAR-8, ovary, TP53 MUT",> 8 µM
same,IC50,"OVSAHO, TP53 MUT",> 8 µM
same,IC50,"P3HR-1, P3HR-1, TP53 MUT",> 8 µM
same,IC50,"P12-Ichikawa, TP53 MUT",2.5 µM
same,IC50,"P31-FUJ, P31/FUJ, TP53 MUT",> 8 µM
